Experimental data: patent US11782064B2, “Methods for simultaneous measurement of multiple biological signals from spectrally identical fluorescent reporters” (Massachusetts Institute of Technology, priority 2019, dated 2023)

Tested on: cultured mouse hippocampal neurons
Assay: Multiplexed imaging of four or five reporters under forskolin, PMA or DHPG
Assay type: cell-based
Method: Live neuron imaging was performed on a spinning disk confocal microscope (a Yokogawa® CSU-W1 Confocal Scanner Unit on a Nikon® Eclipse T1 microscope) equipped with a 40×1.15 NA water immersion objective (Nikon® MRD77410) and a Zyla® PLUS 4.2 Megapixel camera controlled by NIS-Elements® AR software. The filter set for GFP was used for imaging GFP intensity-based reporters (GCaMP6f and cAMPr), and the filter set for GFP and the 405 nm excitation filter was used for imaging 488 nm/405 nm excitation ratiometric reporters (ExRaiAKAR and ExRaiCKAR). The filter set for RFP was used for imaging RFP intensity-based reporters (RAB_EKARev). For electrophysiological characterizations of GCaMP6f and S1-GCaMP6f (FIGS. 8D-G, 9A-Q), neurons were recorded in the GFP emission channel at a single focal plane at 20 milliseconds per frame (50 Hz). In the characterization and spatially multiplexed imaging experiments in FIGS. 9R-V, 10D-10G, 10M-10O, neurons were recorded in the GFP emission channel at a single focal plane at 50 milliseconds per frame (20 Hz). […]

Compound | signaling activities induced in neurons (100 μM DHPG for 3 minutes) | signaling activities induced in neurons (100 ng/mL PMA for 3 minutes)
N[C@H](C(=O)O)c1cc(O)cc(O)c1 [DHPG, (S)-3,5-Dihydroxyphenylglycine] | produced increases in cAMP, PKA, PKC, and ERK levels | 
CCCCCCCCCCCCCC(=O)O[C@@H]1[C@@H](C)[C@@]2(O)[C@@H](C=C(CO)C[C@]3(O)C(=O)C(C)=C[C@@H]23)[C@@H]2C(C)(C)[C@]12OC(C)=O [PMA, phorbol 12-myristate 13-acetate] |  | increases of PKC activity
